Data reported in patent US20200325183A1, “NS2B AS MARKER FOR ZIKA VIRUS INFECTIONS” (priority 2017, published 2020).
Ends that are not written are not given here.

Tests used:
Type in all cases: binding, human
[1] = system: IgG antibodies in sera of Zika patients; experiment: Peptide microarray IgG screening, first study (ZIKV proteome / NS1, NS2a, NS2b arrays)
Description: In a first study, the inventors characterized the antibody profiles of Zika patients in a systematic manner. Therefore, they translated the proteomes of 15 different ZIKV strains (taken from the NCBI database, see Table 1 below) in the form of overlapping peptides as high-density peptide arrays and used 84 different patient and control sera to screen several thousands of potential antigens for pathogen induced antibodies.
In addition, the inventors investigated the time-dependent antibody variation in patients (acute vs. convalescent stage). They screened patient sera from their collaboration partner in Brazil with different peptide arrays, containing the whole proteome of the ZIKV (first screening round). […] Almost no signals could be observed in control samples. […]
In the first study, sera were diluted 1:1000 in PBS buffer with 0.05% Tween 20 pH 7.4 (PBST) and 10% blocking buffer, incubating the sera for 16 h at 4° C. and 50 RPM orbital shaking. […] Image analysis and quantification was performed with the PepSlide Analyzer software (Sicasys Software GmbH, Heidelberg, Germany).
Samples used for the peptide array experiments of the first study were collected from individuals with acute febrile illnesses enrolled in a prospective cohort study from May 2015 to April 2016. […] For molecular viral diagnosis, quantitative real-time PCR (qRT-PCR) for Dengue (DENV) and Zika (ZIKV) viruses was performed. […]

[2] = system: IgG antibodies in plasma of Zika virus patients; experiment: Proteome-wide Zika virus peptide microarray, second study, IgG; settings: plasma 1:250, acute and convalescent samples
Description: (§1) In a second more extended study, the inventors further characterized the IgG and IgM antibody profiles of Zika patients in a more comprehensive manner Therefore, they translated the proteomes of 19 Zika virus strains taken from sequencing data from Nicaragua, Colombia, Guatemala, Honduras, Mexico and Panama 100 additional Zika virus proteomes from the USA with a higher sequence heterogeneity into 4,356 different overlapping Zika virus peptides printed in duplicate on high-density peptide arrays for a high-resolution proteome-wide epitope screening.
(§2) The inventors used plasma of 100 Zika virus patients with a confirmed dengue virus naïve status in the acute and convalescent phase (200 samples), plasma of 50 Zika virus patients with a confirmed dengue virus positive status in the acute and convalescent phase (100 samples), 50 plasma samples of dengue virus patients in the convalescent phase taken before the Zika virus outbreak as disease control and plasma of 25 individuals with a confirmed dengue virus and Zika virus negative status as healthy controls. […] The multiplexed IgG and IgM analysis was enabled by highly specific fluorescently labeled anti-human IgG and anti-human IgM secondary antibodies with different fluorescence wavelengths for emission and detection. […]

[3] = system: IgM antibodies in plasma of Zika virus patients; experiment: Proteome-wide Zika virus peptide microarray, second study, IgM; settings: plasma 1:250, acute and convalescent samples
Description: as §1, §2

[4] = system: IgM antibodies in Zika acute and convalescent plasma samples; experiment: Full substitution scan peptide microarray, IgM; settings: data not shown
Description: In a second screening round of the second study, microarrays with peptide substitution scans of linear WT peptide […] (SEQ ID NO. 9) and cyclic WT peptide KDAEVTGNS (SEQ ID NO. 10) were used to determine essential, conserved and less-conserved/variable amino acid positions and to identify stronger responding peptide variants. Each amino acid position in the WT sequence was systematically exchanged by all 20 physiologic amino acids, and the resulting linear and cyclic peptides and peptide variants were printed in triplicate on the peptide substitution scan microarrays. The immunoreactivity of the peptide variants was tested by incubation with Zika acute and convalescent plasma samples. The assays were carried out in a multiplexed format with fluorescently labeled secondary anti-human IgG and anti-human IgM antibodies to simultaneously analyze the IgG and IgM profiles of each sample.
A substitution analysis was performed with the WT peptide […] (SEQ ID No. 9) and cyclic peptide KDAEVTGNS (SEQ ID NO. 10) to determine essential, conserved and less-conserved/variable amino acid positions and to identify stronger reacting peptide variants.
Each amino acid position in the WT sequence was systematically exchanged by all 20 physiologic amino acids, and the resulting peptides and peptide variants were printed in triplicate on peptide microarrays. […]

[5] = system: IgG antibodies in sera of Zika acute and Zika convalescent patients; experiment: Chemiluminescence peptide ELISA; settings: serum dilution 1:1000, Zika acute and convalescent patient sera
Method: The cyclic peptides and WT peptide were tested by a chemiluminescence ELISA using sera of Zika acute and Zika convalescent patients. A healthy control (HC) sera was included. The ELISA assays were performed under stringent conditions, that is at high serum dilutions (1:1000) to better evaluate the diagnostic potential of the peptide marker. The ELISA results are given in chemiluminescence units (CLUs). Samples were considered as positive, if the CLU of a respective sera is >=2 times over HC value.
For ELISA tests, four cyclic peptides with a Biotin tag preceding the C-terminal cysteine residue were synthesized. The non-cyclic WT peptide (“WT peptide”) was synthesized with a C-terminal Biotin tag at the C-terminus, the amino acid sequence was identical to SEQ ID NO. 9.
Peptide ELISA-Tests were performed on Streptavidin functionalized 96 well microtiterplates (Lumitrac, Greiner BioOne, Germany). The plates were coated with the respective biotinylated peptides with a biotin tag positioned at the C-terminus, preceding the C-terminal cysteine. The plates were incubated overnight at 4° C. with test sera at a dilution of 1:1000 (v/v) in PBST/10% Rockland (PBST=Phosphate buffered saline pH 7.2, 0.05% Tween 20). […] The chemiluminescence was measured after 10 minutes at 425 nm using an automated plate reader (CLARIOstar®. BMG LABTECH GmbH, Germany). […]

## NS2b: Zika virus non-structural protein NS2b, cofactor of NS3 protease, displayed as overlapping 15-mer peptides on arrays
[1]; first screening round, arrays with whole proteome content, sera 1:1000
  IgG antibody reactivity of Zika patients against the whole ZIKV proteome: most prominent interaction
[1]; second screening round
  IgG antibody reactivity, specific arrays with NS1, NS2a, NS2b content: clear signals
[2]
  IgG response, proteome-wide microarray: specific IgG responses
[3]
  IgM response, proteome-wide microarray: no specific IgM response

## WEKDAEVTGNSPRLD [WT peptide]
[4]
  IgM reactivity in substitution scan: not a single human sample exhibited any specific IgM reactivity
[5]
  IgG reactivity in chemiluminescence ELISA (positive if CLU >=2 times over HC value): detected Zika specific antibody responses in acute patient sera as well as in convalescent patient sera

## KDAEVTGNS (also: cyclic) [SEQ ID NO. 10, cyclic WT peptide on substitution scan microarrays]
[4]
  IgM reactivity in substitution scan: not a single human sample exhibited any specific IgM reactivity
